The values below come from US4602945A, “Acaricidal ester of tricyclohexyl-tin hydroxide” (Rhone-Poulenc Agrochimie, priority 1983, dated 1986).

In data set [1] the test system is Plutella xylistella larvae. As to the kind of experiment: Insecticidal test, leaf discs of turnip plants. The format is in vivo. The settings on record: 100 g/hl; 48 hours; 26° C; cyhexatin in the form of a wettable powder. The procedure:
Discs of leaf from turnip plants are placed in gelose in Petri dishes. In each dish, 10 Plutella xylistella larvae are placed on each disc and the dish is covered with a ventilated lid. The product to be tested is dissolved in a water/acetone 50/50 mixture and the discs are treated by spraying with this solution by using a Potter tower at a dose equivalent to 675 liters/ha. The discs are kept at 26° C. After 48 hours after the treatment, the live and dead larvae are counted and the mortality percentage is calculated.

A short description of data set [2]: Solubility in organic solvents. Type of data set: physicochemical. The settings on record: cyclohexanone (546 g), 316 g of 94% pure substance, 50° C., with stirring. The procedure: A reactor is charged, with cyclohexanone (546 g) and 94% pure tricyclohexyl-tin hydroxide (316 g) at 50° C., with stirring. […] Benzoic acid (95 g) is then added and the temperature is kept at 50° C.

The conditions of data set [3]: background statement; cited from earlier work.

For `[OH][Sn]([CH]1CCCCC1)([CH]1CCCCC1)[CH]1CCCCC1` [cyhexatin, Tricyclohexyl-tin hydroxide], the mortality percentage in data set [1] is under 10%. Besides, in data set [2], the dissolution in cyclohexanone entry was “does not dissolve”. The “solubility in most of the usual solvents in agrochemistry” value in data set [3] is given as “insolubility”.
Regarding tricyclohexyl-tin benzoate, in data set [1], the mortality percentage result is given as “at least 95%”.
